Results: ChEMBL document CHEMBL1201862, “PubChem BioAssay data set” (2004)
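Test compounds were applied to cells in 96-well plates for 48 hours at 5 doses. Abbreviation: GI50, concentration required for 50% inhibition of growth.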 Activity calls are given as the source filed them. Cut-off read from the data, not from the text of the source: active = GI50 up to about 1.1 µM and inactive = higher.

Legend:
Test in all cases: NCI anticancer screen, dose series, 48 h
[1] = tested on: MDA-N
[2] = tested on: SK-MEL-28
[3] = tested on: 786-0
[4] = tested on: T47D
[5] = tested on: HCT-15
[6] = tested on: SF-268
[7] = tested on: SF-295
[8] = tested on: HOP-62
[9] = tested on: CAKI-1
[10] = tested on: EKVX
[11] = tested on: CCRF-CEM
[12] = tested on: RXF 393
[13] = tested on: SNB-75
[14] = tested on: MCF7
[15] = tested on: NCI-H23
[16] = tested on: OVCAR-8
[17] = tested on: COLO 205
[18] = tested on: TK-10
[19] = tested on: PC-3
[20] = tested on: UACC-257
[21] = tested on: HCC 2998
[22] = tested on: KM12
[23] = tested on: SW-620
[24] = tested on: HT-29
[25] = tested on: SK-MEL-5
[26] = tested on: UACC-62
[27] = tested on: Malme-3M
[28] = tested on: HL-60
[29] = tested on: RPMI-8226
[30] = tested on: SK-OV-3
[31] = tested on: M14
[32] = tested on: A549
[33] = tested on: IGROV-1
[34] = tested on: DU-145
[35] = tested on: MDA-MB-231
[36] = tested on: K562
[37] = tested on: SR
[38] = tested on: LOX IMVI
[39] = tested on: SN12C
[40] = tested on: MOLT-4
[41] = tested on: ACHN
[42] = tested on: NCI-H460
[43] = tested on: NCI-H522
[44] = tested on: NCI/ADR-RES
[45] = tested on: OVCAR-4
[46] = tested on: UO-31
[47] = tested on: Hs-578T
[48] = tested on: SF-539
[49] = tested on: U-251
[50] = tested on: SNB-19
[51] = tested on: HCT-116
[52] = tested on: MDA-MB-435
[53] = tested on: OVCAR-5
[54] = tested on: HOP-92
[55] = tested on: SK-MEL-2
[56] = tested on: NCI-H226
[57] = tested on: OVCAR-3
[58] = tested on: A498

With `Cc1c(CCN=P(c2ccccc2)(c2ccccc2)c2ccccc2)c(=O)n2c([nH]c3ccccc32)c1C#N` the GI50 [1] was > 10 µM (inactive), the GI50 [2] was > 10 µM (inactive) and the GI50 [3] was > 10 µM (inactive). The GI50 [4] was > 10 µM (inactive), the GI50 [5] was over 10 µM and the GI50 [6] was > 10 µM (inactive). For the same molecule, the GI50 [7] was > 10 µM (inactive), the GI50 [8] was > 10 µM (inactive) and the GI50 [9] was > 10 µM (inactive). For the same molecule, the GI50 [10] was > 10 µM (inactive), the GI50 [11] was 6.93 µM (inactive) and the GI50 [12] was > 10 µM (inactive). The GI50 [13] was > 10 µM (inactive), the GI50 [14] was > 10 µM (inactive) and the GI50 [15] was > 10 µM (inactive). For the same molecule, the GI50 [16] was > 10 µM (inactive), the GI50 [17] was > 10 µM (inactive) and the GI50 [18] was > 10 µM (inactive). The GI50 [19] was > 10 µM (inactive), the GI50 [20] was > 10 µM (inactive) and the GI50 [21] was > 10 µM (inactive). The GI50 [22] was > 10 µM (inactive), the GI50 [23] was > 10 µM (inactive) and the GI50 [24] was > 10 µM (inactive). The GI50 [25] was > 10 µM (inactive), the GI50 [26] was > 10 µM (inactive) and the GI50 [27] was > 10 µM (inactive). For the same molecule, the GI50 [28] was 7.21 µM (inactive), the GI50 [29] was > 10 µM (inactive) and the GI50 [30] was > 10 µM (inactive). For the same molecule, the GI50 [31] was > 10 µM (inactive), the GI50 [32] was > 10 µM (inactive) and the GI50 [33] was > 10 µM (inactive). For the same molecule, the GI50 [34] was > 10 µM (inactive), the GI50 [35] was > 10 µM (inactive) and the GI50 [36] was 8.36 µM (inactive). The GI50 [37] was 8.75 µM (inactive), the GI50 [38] was > 10 µM (inactive) and the GI50 [39] was > 10 µM (inactive). For the same molecule, the GI50 [40] was 6.19 µM (inactive).
With `COc1ccc2[nH]c3c(c2c1)CCn1c-3nc2ccccc2c1=O` the GI50 [1] was > 25 µM (inactive), the GI50 [2] was > 25 µM (inactive) and the GI50 [3] was > 25 µM (inactive). The GI50 [41] was > 25 µM (inactive), the GI50 [4] was > 25 µM (inactive) and the GI50 [42] was > 25 µM (inactive). For the same molecule, the GI50 [5] was over 25 µM, the GI50 [6] was > 25 µM (inactive) and the GI50 [43] was > 25 µM (inactive). The GI50 [7] was > 25 µM (inactive), the GI50 [8] was > 25 µM (inactive) and the GI50 [10] was > 25 µM (inactive). The GI50 [11] was > 25 µM (inactive), the GI50 [13] was > 25 µM (inactive) and the GI50 [14] was > 25 µM (inactive). For the same molecule, the GI50 [16] was > 25 µM (inactive), the GI50 [17] was > 25 µM (inactive) and the GI50 [18] was > 25 µM (inactive). The GI50 [44] was > 25 µM (inactive), the GI50 [45] was > 25 µM (inactive) and the GI50 [46] was > 25 µM (inactive). The GI50 [19] was > 25 µM (inactive), the GI50 [20] was > 25 µM (inactive) and the GI50 [21] was > 25 µM (inactive). For the same molecule, the GI50 [22] was > 25 µM (inactive), the GI50 [23] was > 25 µM (inactive) and the GI50 [25] was > 25 µM (inactive). For the same molecule, the GI50 [28] was > 25 µM (inactive), the GI50 [29] was > 25 µM (inactive) and the GI50 [30] was > 25 µM (inactive). The GI50 [47] was > 25 µM (inactive), the GI50 [31] was > 25 µM (inactive) and the GI50 [32] was > 25 µM (inactive). The GI50 [33] was > 25 µM (inactive), the GI50 [48] was > 25 µM (inactive) and the GI50 [49] was > 25 µM (inactive). For the same molecule, the GI50 [50] was > 25 µM (inactive), the GI50 [35] was > 25 µM (inactive) and the GI50 [51] was > 25 µM (inactive). The GI50 [36] was > 25 µM (inactive), the GI50 [37] was > 25 µM (inactive) and the GI50 [39] was > 25 µM (inactive). The GI50 [52] was > 25 µM (inactive), the GI50 [53] was > 25 µM (inactive) and the GI50 [40] was > 25 µM (inactive).
In the case of `C=C1CC(c2ccc(OCCCN3C(=O)c4ccccc4C3=O)c(OC)c2)OC1=O` (stereo not drawn), the GI50 [1] is reported as 3.44 µM (inactive), the GI50 [2] is reported as 2.21 µM (inactive) and the GI50 [3] is reported as 4.1 µM (inactive). For the same molecule, the GI50 [41] was 6.25 µM (inactive), the GI50 [4] was 2.56 µM (inactive) and the GI50 [42] was 2.62 µM (inactive). For the same molecule, the GI50 [5] was 2.71 µM, the GI50 [6] was 8.09 µM (inactive) and the GI50 [43] was 0.514 µM (active). The GI50 [7] was 11.2 µM (inactive), the GI50 [8] was 15.6 µM (inactive) and the GI50 [9] was 3.66 µM (inactive). For the same molecule, the GI50 [10] was 11 µM (inactive), the GI50 [54] was 1.62 µM (inactive) and the GI50 [11] was 1.06 µM (active). For the same molecule, the GI50 [12] was 1.95 µM (inactive), the GI50 [13] was 0.382 µM (active) and the GI50 [55] was 4.7 µM (inactive). The GI50 [14] was 0.218 µM (active), the GI50 [15] was 4.82 µM (inactive) and the GI50 [16] was 2.93 µM (inactive). For the same molecule, the GI50 [17] was 1.4 µM (inactive), the GI50 [18] was 2.39 µM (inactive) and the GI50 [44] was 17.9 µM (inactive). The GI50 [45] was 1.06 µM (active), the GI50 [46] was 3.69 µM (inactive) and the GI50 [19] was 12.4 µM (inactive). The GI50 [20] was 3.63 µM (inactive), the GI50 [21] was 12 µM (inactive) and the GI50 [22] was 10.8 µM (inactive). For the same molecule, the GI50 [23] was 1.56 µM (inactive), the GI50 [24] was 2.58 µM (inactive) and the GI50 [25] was 11.1 µM (inactive). For the same molecule, the GI50 [26] was 2.07 µM (inactive), the GI50 [56] was 5.61 µM (inactive) and the GI50 [27] was 3.27 µM (inactive). For the same molecule, the GI50 [28] was 1.25 µM (inactive), the GI50 [29] was 0.849 µM (active) and the GI50 [30] was 15.4 µM (inactive). For the same molecule, the GI50 [47] was 6.17 µM (inactive), the GI50 [31] was 4.3 µM (inactive) and the GI50 [32] was 13.6 µM (inactive). The GI50 [33] was 2.56 µM (inactive), the GI50 [48] was 0.303 µM (active) and the GI50 [49] was 7.98 µM (inactive). For the same molecule, the GI50 [34] was 11.9 µM (inactive), the GI50 [50] was 11.9 µM (inactive) and the GI50 [35] was 9.25 µM (inactive). For the same molecule, the GI50 [51] was 1.6 µM (inactive), the GI50 [36] was 1.07 µM (active) and the GI50 [37] was 0.973 µM (active). The GI50 [38] was 1.74 µM (inactive), the GI50 [39] was 6.82 µM (inactive) and the GI50 [52] was 2.04 µM (inactive). For the same molecule, the GI50 [53] was 13.7 µM (inactive), the GI50 [40] was 0.615 µM (active) and the GI50 [57] was 2.21 µM (inactive). For the same molecule, the GI50 [58] was 1.77 µM (inactive).
